Source: patent publication US11007196B1, “Method for preparing composition of matter comprising fluorouracil and zinc-mercury-selenium quantum dot” (priority 2020, dated 2021)

Tested on: human gastric cancer MGC-803 cells
Experimental: Pharmaceutical reagents were divided into four groups including ZnHgSe quantum dot group, DMF group, DMF-QD group and blank control group. Human gastric cancer MGC-803 cells in exponential phase were digested with trypsin, followed by addition of medium containing 10% fetal bovine serum to make a single cell suspension. The cells were seeded in a 96-well cell culture plate (100 μL of cell suspension was added to each well, containing 9×10^3 cells) and cultured in an incubator of 37° C. and 5% CO2 for 24 h until the cells adhered to the wall of the 96-well plate. Three groups of drug solutions with concentration gradients were added (ZnHgSe quantum dot gradient: 2400 μg·mL^−1, 1200 μg·mL^−1, 600 μg mL^−1, 300 μg·mL^−1, 150 μg·mL^−1, and 75 μg·mL^−1; DMF gradient: 800 μg mL^−1, 400 μg·mL^−1, 200 μg·mL^−1, 100 μg·mL^−1, 50 μg·mL^−1, and 25 μg·mL^−1; corresponding DMF-QD gradient was determined according to DMF concentration by equivalent conversion). Each group was repeated with 6 wells, with an additional zero-adjustment well and a control well. […] The absorbance value OD of each well was measured by an enzyme-linked immunosorbent detector at a wavelength of 490 nm, and the cell growth inhibition rate (IC50) was calculated. IC50 value was calculated according to the modified Karber's method: […]

dextran-magnetic layered double hydroxide-fluorouracil [DMF]
cytotoxicity per unit mass relative to quantum dots: about 2.6 times
